Assay results taken from paper PMC7397142, “Discovery of Novel Tankyrase Inhibitors through Molecular Docking-Based Virtual Screening and Molecular Dynamics Simulation Studies” (Molecules, 2020).
Where two headings read alike, the source gives them in different places.

Legend:
tankyrase 2 (TNKS2) [1] = target: T1, tankyrase 2 (TNKS2) (Homo sapiens, UniProt Q9H2K2); assay: immunochemical dot-blot assay of PAR accumulation, […] NAD+; 4PL fit gave […]; format: biochemical
T1 construct: catalytic fragment (human, recombinant, residues 849–1166)

tankyrase 2 (TNKS2) [2] = target: T1, tankyrase 2 (TNKS2); assay: as above; format: biochemical; remark: listed apart in the source

T1 sequence (Q9H2K2 849-1166): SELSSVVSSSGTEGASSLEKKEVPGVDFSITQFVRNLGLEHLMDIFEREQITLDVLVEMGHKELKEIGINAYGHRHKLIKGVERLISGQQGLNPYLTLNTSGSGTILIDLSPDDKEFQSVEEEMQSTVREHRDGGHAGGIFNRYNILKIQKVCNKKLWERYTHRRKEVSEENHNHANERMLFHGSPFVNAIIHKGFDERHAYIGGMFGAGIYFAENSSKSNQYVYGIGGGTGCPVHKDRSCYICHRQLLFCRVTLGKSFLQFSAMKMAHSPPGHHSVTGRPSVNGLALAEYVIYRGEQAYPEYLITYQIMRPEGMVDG

Row | Compound | IC50 (tankyrase 2 (TNKS2) [1]) [nM] | IC50 (tankyrase 2 (TNKS2) [2]) [µM]
1 | O=C(NCCNC(=O)c1cnccn1)c1ccc(-c2cc3ccccc3oc2=O)cc1 [A1] | < 10 | –
2 | COc1ccc2oc(=O)c(-c3ccc(OCC(=O)NCc4cccnc4)cc3)cc2c1 [A3] | – | < 10
